Experimental data taken from publication PMC10424716, “Discovery selective acetylcholinesterase inhibitors to control Tetranychus urticae (Acari: Tetranychidae)” (Journal of Insect Science, 2023).
Read-outs that look alike come from different tables or passages of the source.

Biological target: T1, T. urticae AChE (TuAChE) (Tetranychus cinnabarinus, UniProt M9T420)
T1 construct: gene ace1; methods also mention mite extracts
T1 sequence (M9T420 1-687): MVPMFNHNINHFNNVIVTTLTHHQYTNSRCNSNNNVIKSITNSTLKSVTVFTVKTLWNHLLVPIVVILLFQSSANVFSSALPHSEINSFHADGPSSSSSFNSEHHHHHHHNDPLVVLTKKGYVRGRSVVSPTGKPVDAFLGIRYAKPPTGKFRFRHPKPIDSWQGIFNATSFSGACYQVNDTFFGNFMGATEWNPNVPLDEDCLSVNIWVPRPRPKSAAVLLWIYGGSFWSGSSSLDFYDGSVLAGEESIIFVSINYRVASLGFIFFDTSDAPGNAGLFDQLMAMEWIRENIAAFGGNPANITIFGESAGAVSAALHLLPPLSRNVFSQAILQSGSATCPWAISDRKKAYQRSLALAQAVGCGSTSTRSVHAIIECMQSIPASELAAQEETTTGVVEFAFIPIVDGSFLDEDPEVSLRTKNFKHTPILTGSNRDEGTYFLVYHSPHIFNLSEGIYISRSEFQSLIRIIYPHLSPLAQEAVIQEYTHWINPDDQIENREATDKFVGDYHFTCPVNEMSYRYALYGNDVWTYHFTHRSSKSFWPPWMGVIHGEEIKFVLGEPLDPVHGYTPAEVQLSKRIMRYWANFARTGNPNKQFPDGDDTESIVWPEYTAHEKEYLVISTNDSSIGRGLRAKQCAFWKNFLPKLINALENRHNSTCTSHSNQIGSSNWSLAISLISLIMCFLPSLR
Assay: modified Ellman assay, […] nm
Assay type: biochemical

SMILES	IC50 (read-out: IC50(mM) / TuAChE) [mM]	IC50 [mM]
O=C(c1ccc2occc2c1)N1CCC(OCc2ccccc2)CC1 [compound 8, 1-(1-benzofuran-5-ylcarbonyl)-4-(benzyloxy) piperidine]	1.51	–
CNC(=O)Oc1ccc2c(c1)[C@]1(C)CCN(C)[C@@H]1N2C [eserine]	–	3.81
